Assay results: patent US20160326142A1, “PYRAZOLE CARBOXAMIDE COMPOUNDS, COMPOSITIONS AND METHODS OF USE” (Genentech, Inc., priority 2012, published 2016)

target: T1, ITK (Homo sapiens, UniProt Q08881); experiment: ITK enzyme assay (Caliper or LCMS peptide phosphorylation); type: biochemical; settings: purified ITK (Invitrogen PV3875), 20 μM ATP, Ki by Morrison's quadratic equation
T1 construct: purchased Invitrogen PV3875
T1 sequence (Q08881 1-620): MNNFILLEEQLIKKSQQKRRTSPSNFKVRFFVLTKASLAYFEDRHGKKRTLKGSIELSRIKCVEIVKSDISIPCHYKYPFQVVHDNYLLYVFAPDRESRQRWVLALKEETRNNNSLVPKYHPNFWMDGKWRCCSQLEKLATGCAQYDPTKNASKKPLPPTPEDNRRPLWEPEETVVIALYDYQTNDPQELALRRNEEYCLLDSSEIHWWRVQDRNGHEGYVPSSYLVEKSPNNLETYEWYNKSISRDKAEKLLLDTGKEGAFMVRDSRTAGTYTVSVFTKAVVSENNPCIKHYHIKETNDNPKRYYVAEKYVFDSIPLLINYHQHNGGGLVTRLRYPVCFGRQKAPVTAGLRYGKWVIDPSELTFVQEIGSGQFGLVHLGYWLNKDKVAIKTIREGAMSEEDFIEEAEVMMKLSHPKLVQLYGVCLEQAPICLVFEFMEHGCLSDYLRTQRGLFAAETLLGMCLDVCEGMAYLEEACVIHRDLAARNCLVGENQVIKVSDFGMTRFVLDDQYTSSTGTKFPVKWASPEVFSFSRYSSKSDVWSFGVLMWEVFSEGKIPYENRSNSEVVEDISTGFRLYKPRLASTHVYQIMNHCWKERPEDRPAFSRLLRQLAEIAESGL
Method in brief: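 Purified human ITK peptide phosphorylation, quenched with EDTA (50 mM final) for Caliper LabChip separation or TCA (5% v/v final) for UPLC-MS/MS MRM quantification. Ki derived via Morrison tight-binding equation, corrected for competitive inhibition using ATP concentration relative to Km,app.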

Row | Structure (SMILES) | Ki
1 | CC1(C)CCc2c(C(=O)Nc3cnn(C(c4ccccc4)C(C)(C)O)c3)n[nH]c2C1 (single isomer, unassigned) [Example 55b, N-(1-(2-hydroxy-2-methyl-1-phenylpropyl)-1H-pyrazol-4-yl)-6,6-dimethyl-4,5,6,7-tetrahydro-1H-indazole-3-carboxamide] | 18 nM
2 | CCC1(C)CCc2c(C(=O)Nc3cnn(Cc4ccccc4)c3)n[nH]c2C1 (single isomer, unassigned) [Example 56a, N-(1-benzyl-1H-pyrazol-4-yl)-6-ethyl-6-methyl-4,5,6,7-tetrahydro-1H-indazole-3-carboxamide] | 9 nM
3 | CCC1(C)CCc2c(C(=O)Nc3cnn(Cc4ccccc4)c3)n[nH]c2C1 (single isomer, unassigned) [Example 56b, N-(1-benzyl-1H-pyrazol-4-yl)-6-ethyl-6-methyl-4,5,6,7-tetrahydro-1H-indazole-3-carboxamide] | 13 nM
4 | CC1(C)CCc2c(C(=O)Nc3cnn(C(CN4CCC4)c4ccccc4)c3)n[nH]c2C1 (single isomer, unassigned) [Example 57a, N-(1-(2-(azetidin-1-yl)-1-phenylethyl)-1H-pyrazol-4-yl)-6,6-dimethyl-4,5,6,7-tetrahydro-1H-indazole-3-carboxamide] | 2 nM
5 | CC1(C)CCc2c(C(=O)Nc3cnn(C(CN4CCC4)c4ccccc4)c3)n[nH]c2C1 (single isomer, unassigned) [Example 57b, N-(1-(2-(azetidin-1-yl)-1-phenylethyl)-1H-pyrazol-4-yl)-6,6-dimethyl-4,5,6,7-tetrahydro-1H-indazole-3-carboxamide] | 12 nM
6 | CN(CCC(c1ccccc1)n1cc(NC(=O)c2n[nH]c3c2CCC(C)(C)C3)cn1)C1COC1 (single isomer, unassigned) [Example 58a, 6,6-dimethyl-N-(1-(3-(methyl(oxetan-3-yl)amino)-1-phenylpropyl)-1H-pyrazol-4-yl)-4,5,6,7-tetrahydro-1H-indazole-3-carboxamide] | 7 nM
7 | CN(CCC(c1ccccc1)n1cc(NC(=O)c2n[nH]c3c2CCC(C)(C)C3)cn1)C1COC1 (single isomer, unassigned) [Example 58b, 6,6-dimethyl-N-(1-(3-(methyl(oxetan-3-yl)amino)-1-phenylpropyl)-1H-pyrazol-4-yl)-4,5,6,7-tetrahydro-1H-indazole-3-carboxamide] | 0.6 nM
8 | CN(CC(c1ccccc1)n1cc(NC(=O)c2n[nH]c3c2CCC(C)(C)C3)cn1)S(C)(=O)=O (single isomer, unassigned) [Example 61a, 6,6-dimethyl-N-(1-(2-(N-methylmethylsulfonamido)-1-phenylethyl)-1H-pyrazol-4-yl)-4,5,6,7-tetrahydro-1H-indazole-3-carboxamide] | 5 nM
9 | CN(CC(c1ccccc1)n1cc(NC(=O)c2n[nH]c3c2CCC(C)(C)C3)cn1)S(C)(=O)=O (single isomer, unassigned) [Example 61b, 6,6-dimethyl-N-(1-(2-(N-methylmethylsulfonamido)-1-phenylethyl)-1H-pyrazol-4-yl)-4,5,6,7-tetrahydro-1H-indazole-3-carboxamide] | 1 nM
10 | CC1(C)CCc2c(C(=O)Nc3cnn(C(CN4CCOCC4)c4ccccc4)c3)n[nH]c2C1 (single isomer, unassigned) [Example 62a, 6,6-dimethyl-N-(1-(2-morpholino-1-phenylethyl)-1H-pyrazol-4-yl)-4,5,6,7-tetrahydro-1H-indazole-3-carboxamide] | 3 nM
11 | CC1(C)CCc2c(C(=O)Nc3cnn(C(CN4CCOCC4)c4ccccc4)c3)n[nH]c2C1 (single isomer, unassigned) [Example 62b, 6,6-dimethyl-N-(1-(2-morpholino-1-phenylethyl)-1H-pyrazol-4-yl)-4,5,6,7-tetrahydro-1H-indazole-3-carboxamide] | 16 nM
